Results on one compound are retold here after patent US20110319338A1, “PEPTIDES THAT BIND EUKARYOTIC TRANSLATION INITIATION FACTOR 4E” (The Board of Regents of the University of Texas System, priority 2008, published 2011).

A short description of data set [1]: Mouse serum antibody assays. The format is in vivo, mice. Particulars: serum 1:100 dilution. Here is the method: FIGS. 12A-12C. Serum luteinizing hormone (LH) levels and serum antibody reactivity.
Mouse serum antibody assays. Wells in 96-well plates were coated with 50 nanograms of [DLys6]GnRH-4EBP1-WT peptide or with 100 nanograms of ES-2 cell lysate. Serum of saline- and peptide-treated mice (1:100 dilution) was incubated in wells for 2 hours at room temperature. Bound IgG was detected using horseradish peroxidase-conjugated goat anti-mouse IgG, and measured at an optimal density of 450 nm.

Data set [2] is described as follows: Peptide stability in serum and in culture medium (Western blot, MALDI TOF). It is filed as in vitro ADME. Particulars: human, serum (undiluted, of an ovarian cancer patient), 37° C. The procedure: FIGS. 6A-6B. Stability of [DLys6]GnRH-4EBP1 peptide. Biotinylated peptide was added to McCoys' 5A medium containing 10% fetal bovine serum (FBS), and to human serum. Samples were immediately withdrawn (0 hours). The remaining mixtures were incubated at 37° C., and samples taken thereafter at 1, 3, 6, 12 and 24 hours. In (FIG. 6A), samples were analyzed by Western blot using horseradish peroxidase-conjugated strepatavidin. In (FIG. 6B), samples of peptide incubated in serum for 0, 12 and 24 hours were analyzed by Matrix Assisted Laser Desorption Ionization-Time of Flight (MALDI TOF) mass spectrometry. Peaks corresponding to intact peptide (mass: 3990) are indicated. Peaks of 1256, 1684 and 3384 in mass are likely to represent degradation products of the peptide.
Peptide stability studies. Biotinylated peptide (7 micrograms) was mixed with McCoys' 5A medium containing 10% FBS in a final volume of 140 microliters. A sample of 20 microliters was immediately removed and frozen. The remaining mixture was incubated at 37° C., and 20 microliters samples taken thereafter at 1, 3, 6, 12 and 24 hours. […] Samples were analyzed by Western blot using horseradish peroxidase-conjugated strepatavidin, and by MALDI TOF mass spectrometry using an Applied Biosystems 4700 Proteomic Analyzer.
Background: A western blot detects proteins with antibodies after separation by electrophoresis.

The nature of data set [3]: Tolerability in xenograft mice: observation, histology and TUNEL-staining of tissues. The format is in vivo. An excerpt:
FIGS. 11A-11B. TUNEL-staining of tissues of saline- and peptide-treated mice. […] Shown are normal tissues of the brain, heart, lung, liver, breast, pancreas and ovary, and tumor implants on the omentum. Bar, 60 micrometers. Pancreatic and ovarian sections show normal pancreatic (P) and ovarian (O) tissues plus adjacent tumor (T). Also shown are normal tissues of the pituitary and bone marrow. Bar, 20 micrometers
(§1) Animal Studies. Animal studies were approved by the Institutional Animal Care and Use Committee. The ES-2 cell line stably expressing enhanced green fluorescent protein (ES-2-GFP) has been described in previous work (Hara et al., 2007). Four-week-old female nude mice were inoculated i.p. at one site in the lower abdomen with 10^6 ES-2-GFP cells. At Day 9 after tumor cell inoculation, one group of mice (n=5) were killed by CO2 asphyxiation. At Day 9, other groups of mice were administered by i.p. injection with 200 microliters of phosphate-buffered saline (PBS) (n=11), [DLys6]GnRH (n=11) or [DLys6]GnRH-4EBP1-WT peptide (n=11) at a dose of 3.0 nanomoles per gram body weight. Peptides were suspended in PBS and administered at a volume of 200 microliters. PBS or peptide was administered every 2 days thereafter for 11 days (6 doses in total). Mice were sacrificed on Day 20, and ascites harvested. Tumors were visualized under a Leica MZML III fluorescence stereomicroscope equipped with mercury lamp power supply and green fluorescent protein (GFP) filter set. Tumor burden was quantified by measuring areas of fluorescence signals within the abdominal cavity in captured images by using Image Pro Plus 5.0 software (Media Cybernetics, Bethesda, Md.). Slides of paraffin-embedded tissues collected from mice were stained with hematoxylin-eosin. TUNEL-staining of tissue sections was performed using the in situ cell death detection kit (Roche).

A further data set concerns ES-2-GFP cells. In words: Mouse i.p. xenograft model of epithelial ovarian cancer. Particulars: for Deaths (died before completing treatment regimen) / Drop-outs (euthanized prior to completion due to morbidity related to ascites accumulation): of 11 mice per group. The format is in vivo. The procedure: FIGS. 4A-4C. Anti-tumor activity of [DLys6]GnRH-4EBP1-WT peptide in a xenograft model of EOC. Female nude mice were inoculated i.p. with one million ES-2-GFP cells. At Day 9 after tumor cell inoculation, one group of mice (n=5) was sacrificed (pre-treatment). At Day 9, other groups of mice were administered by i.p. injection with saline (n=11), [DLys6]GnRH (n=11) or [DLys6]GnRH-4EBP1-WT (n=11) at a dose of 3.0 nanomoles per gram body weight Saline or peptide was administered every 2 days thereafter for 11 days (6 doses in total), and mice were sacrificed on Day 20. (FIG. 4A) Visualization under a fluorescence stereoscope of i.p. tumors in pre-treatment mice (at Day 9) including implants on the omentum (ome), and in mice treated with saline, with agonist alone and with [DLys6]GnRH-4EBP1-WT (at Day 20). (FIG. 4B) Hematoxylin eosin-stained sections of tissues of pre-treatment mice (at Day 9) and of saline- and peptide-treated mice (at Day 20). Tumors attached to the omentum extensively involved the pancreas in saline- and agonist-treated mice. Also shown are tumors attached to the broad ligament and mesentery. Bar, 200 micrometers. (FIG. 4C) Quantification of i.p. tumor burden in pre-treatment and treated mice that completed the regimen, expressed as the average percent of area of fluorescence within the abdominal cavity in captured images, and volume of ascites. Median values of tumor burden and ascites volume for each group and statistical significance of differences between groups are indicated.
as §1
To determine the efficacy of [DLys6]GnRH-4EBP1-WT peptide in vivo, a mouse i.p. xenograft model was used that was established from an ES-2 cell line stably expressing GFP (Hara et al., 2007). This model mimics the typical behavior of epithelial ovarian cancer, including i.p. dissemination and ascites formation. This example comprised three treatment groups of mice i) saline, ii) [DLys6]GnRH agonist, and iii) [DLys6]GnRH-4EBP1-WT, where sample size of each group was n=11. The first dose of peptide or saline was administered i.p. to mice at Day 9 after tumor cell inoculation. At Day 9, no ascites had yet formed but tumors had established on the omentum, broad ligament and mesentery which are common sites of ovarian cancer cell attachment (FIGS. 4A,B). A schedule in which peptide was administered every 2 days was chosen, based on the studies of peptide stability in serum (FIG. 6).
Based on studies of other agonist conjugates in xenograft models (19-21), a peptide dose of 3.0 nanomoles per gram body weight was used. […]

In the next data set the test system is luteinizing hormone (LH). The data set is described as follows: Assay of serum LH levels by radioimmunoassay. The note with it: serum collected at end of regimen (Day 20).

Structures are written as SMILES. “Also recorded” adds a separate entry of the source. Square brackets hold non-standard residues; d marks the D form. Peptide text beside a SMILES is read from it. pGlu = O=C1CC[C@@H](C(=O)O)N1

Text for luteinizing hormone (LH): Assay of serum LH levels.

As for `CC[C@H](C)[C@H](NC(=O)[C@H](CCCNC(=N)N)NC(=O)[C@@H](NC(=O)CNC(=O)CNC(=O)[C@@H]1CCCN1C(=O)[C@H](CCCNC(=N)N)NC(=O)[C@H](CC(C)C)NC(=O)[C@@H](CCCCN)NC(=O)[C@H](Cc1ccc(O)cc1)NC(=O)[C@H](CO)NC(=O)[C@H](Cc1c[nH]c2ccccc12)NC(=O)[C@H](Cc1c[nH]cn1)NC(=O)[C@@H]1CCC(=O)N1)[C@@H](C)O)C(=O)N[C@H](C(=O)N[C@@H](Cc1ccc(O)cc1)C(=O)N[C@@H](CC(=O)O)C(=O)N[C@@H](CCCNC(=N)N)C(=O)N[C@@H](CCCCN)C(=O)N[C@@H](Cc1ccccc1)C(=O)N[C@@H](CC(C)C)C(=O)N[C@@H](CCSC)C(=O)N[C@@H](CCC(=O)O)C(=O)N[C@@H](CS)C(=O)N[C@@H](CCCNC(=N)N)C(=O)N[C@@H](CC(N)=O)C(=O)N[C@@H](CO)C(=O)N1CCC[C@H]1C(=O)N[C@H](C(=O)N[C@H](C(=O)O)[C@@H](C)O)C(C)C)[C@@H](C)CC` [[DLys6]GnRH-4EBP1-WT] ([pGlu]HWSY[dK]LRPGGTRIIYDRKFLMECRNSPVT-OH), the “mice with antibody reactivity to [DLys6]GnRH-4EBP1-WT at least two standard deviations above mean background in saline-treated mice” value in data set [1] was 2 of 8. In data set [2], this compound had a half-life of 5 to 6 h. Further, in data set [3] (Day 20), the “TUNEL-positive cells in other normal tissues (brain, heart, lung and bone marrow)” value is “not detected”; the TUNEL-staining in ovaries result was “some staining was observed”; the “TUNEL-staining of cells of the liver and pancreas” value is “TUNEL-negative”. Moreover, the “TUNEL-staining in breast and pituitary tissues” value in data set [3] (Day 20, tissues that express GnRH-RI) was “No TUNEL-staining was detected”. The “Mice euthanized, day” value in the data set on ES-2-GFP cells (drop-out mice, individual animals) is “n = 1, day 15; also recorded: n = 1, day 17”. Also, in the data set on ES-2-GFP cells (mouse, in vivo), the “day of death before completing treatment regimen” value turned out to be 19 days. Also, in the data set on ES-2-GFP cells, the “Deaths (died before completing treatment regimen)” value came out at 1 and the “Drop-outs (euthanized prior to completion due to morbidity related to ascites accumulation)” value is recorded as 2. In the data set on ES-2-GFP cells (listed as [DLys6]GnRH-4EBP-WT), the “Deaths (died before completing treatment regimen)” value is “one” and the “Drop-outs (euthanized prior to completion due to morbidity related to ascites accumulation)” value was “two”. Besides, the “serum LH levels compared with saline-treated mice” value in the data set with luteinizing hormone (LH) is “not significantly different”.

The term half-life denotes the time needed for the level to fall by half in the phase considered. A lower half-life goes with rapid decline.
